Measurements published in US20120213758A1, “BIARYL PDE4 INHIBITORS FOR TREATING PULMONARY AND CARDIOVASCULAR DISORDERS” (DeCODE Genetics enf, priority 2007, published 2012).
Counter-ions that a name gives are not always drawn. Like-named read-outs stand apart in the source and are kept apart here.

Assays:
hPDE4D = hPDE4D (Homo sapiens, UniProt Q08499); test: In-vitro real-time enzyme-coupled spectrophotometric assay for PDE4 enzymes (hPDE4D)
hPDE4B = hPDE4B (Homo sapiens, UniProt Q07343); test: In-vitro real-time enzyme-coupled spectrophotometric assay for PDE4 enzymes (hPDE4B)
Chain of hPDE4B (Q07343 whole entry): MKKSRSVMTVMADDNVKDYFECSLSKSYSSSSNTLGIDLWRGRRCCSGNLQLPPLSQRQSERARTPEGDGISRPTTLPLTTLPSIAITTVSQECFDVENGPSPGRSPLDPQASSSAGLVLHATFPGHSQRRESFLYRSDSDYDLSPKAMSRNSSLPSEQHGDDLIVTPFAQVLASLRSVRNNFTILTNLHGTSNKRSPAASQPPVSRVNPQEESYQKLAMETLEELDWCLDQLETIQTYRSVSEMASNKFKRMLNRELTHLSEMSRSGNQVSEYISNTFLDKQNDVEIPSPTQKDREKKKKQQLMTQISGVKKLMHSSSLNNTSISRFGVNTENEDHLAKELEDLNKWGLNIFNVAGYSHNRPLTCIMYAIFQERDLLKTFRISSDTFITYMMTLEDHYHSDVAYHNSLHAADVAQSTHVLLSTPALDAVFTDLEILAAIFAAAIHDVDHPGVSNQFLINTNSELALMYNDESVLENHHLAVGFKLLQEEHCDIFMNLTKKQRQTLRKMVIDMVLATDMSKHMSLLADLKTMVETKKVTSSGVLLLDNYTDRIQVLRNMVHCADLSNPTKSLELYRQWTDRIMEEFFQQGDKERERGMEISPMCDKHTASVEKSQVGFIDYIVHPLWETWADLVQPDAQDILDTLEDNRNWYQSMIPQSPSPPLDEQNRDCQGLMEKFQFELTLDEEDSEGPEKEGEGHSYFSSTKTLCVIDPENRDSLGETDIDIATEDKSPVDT

Chain of hPDE4D (Q08499 whole entry): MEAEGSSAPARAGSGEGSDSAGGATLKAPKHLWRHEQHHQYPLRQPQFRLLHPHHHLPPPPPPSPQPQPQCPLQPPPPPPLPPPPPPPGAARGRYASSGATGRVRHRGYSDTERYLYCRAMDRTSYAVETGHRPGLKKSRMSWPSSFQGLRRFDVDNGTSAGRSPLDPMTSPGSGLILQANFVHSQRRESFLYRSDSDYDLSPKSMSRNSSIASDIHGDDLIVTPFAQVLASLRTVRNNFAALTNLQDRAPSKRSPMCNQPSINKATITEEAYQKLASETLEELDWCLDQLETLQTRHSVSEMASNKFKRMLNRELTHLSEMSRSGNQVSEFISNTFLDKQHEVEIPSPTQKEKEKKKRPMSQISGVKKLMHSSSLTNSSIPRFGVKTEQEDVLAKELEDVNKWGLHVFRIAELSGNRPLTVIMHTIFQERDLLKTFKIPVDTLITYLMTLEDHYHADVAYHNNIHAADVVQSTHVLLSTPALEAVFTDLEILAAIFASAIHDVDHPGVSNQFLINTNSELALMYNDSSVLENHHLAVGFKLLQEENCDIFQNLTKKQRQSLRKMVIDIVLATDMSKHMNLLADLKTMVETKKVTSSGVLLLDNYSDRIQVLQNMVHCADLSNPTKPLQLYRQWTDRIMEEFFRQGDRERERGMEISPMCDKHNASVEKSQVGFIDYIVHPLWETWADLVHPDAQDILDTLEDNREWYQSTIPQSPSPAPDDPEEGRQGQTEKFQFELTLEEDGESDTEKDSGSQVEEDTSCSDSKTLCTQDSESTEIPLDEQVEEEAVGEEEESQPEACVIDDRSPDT

Molecule	IC50 (hPDE4D)	IC50 (hPDE4B)	IC50 (hPDE4D; read-out: hPDE4D activity, enzyme-coupled NADH assay, absorbance at 340 nm)	IC50 (hPDE4B; read-out: hPDE4B activity, enzyme-coupled NADH assay, absorbance at 340 nm)
COc1ccc(Cc2ccc(C(=O)N3CCC(C(=O)O)C3)nc2)c(F)c1-c1cccc(Cl)c1 (stereo not shown) [Example A-038, 1-[5-(3′-Chloro-2-fluoro-6-methoxy-biphenyl-3-ylmethyl)-pyridine-2-carbonyl]-pyrrolidine-3-carboxylic acid]	< 5 µM	< 5 µM		
COc1ccc(Cn2cncc2C(=O)O)c(F)c1-c1cccc(Cl)c1 [Example A-060, 3-(3′-Chloro-2-fluoro-6-methoxy-biphenyl-3-ylmethyl)-3H-imidazole-4-carboxylic acid]	< 5 µM	5 to 20 µM		
CCOC(=O)CCCNC(=O)Nc1nnc(Cc2ccc(OC)c(-c3cccc(Cl)c3)c2F)s1 [Example A-030, 4-{3-[5-(3′-Chloro-2-fluoro-6-methoxy-biphenl-3-ylmethyl)-[1,3,4]thiadiazol-2-yl]-ureido}-butyric acid ethyl ester]	< 5 µM	5 to 20 µM		
COc1ccc(Cc2ccc(N3CC[C@H]3C(=O)O)nc2)c(F)c1-c1cccc(Cl)c1 [Example A-066, (S)-1-[5-(3′-chloro-2-fluoro-6-methoxy-biphenyl-3-ylmethyl)-pyridin-2-yl]-azetidine-2-carboxylic acid]	< 5 µM	< 5 µM		
COc1ccc(Cc2ccc(N3CCC3C(=O)O)nc2)c(F)c1-c1cccc(Cl)c1 (stereo not shown) [Example A-054]	< 5 µM	< 5 µM		
COc1ccc(Cc2ccc(N(CC(=O)O)C(N)=O)nc2)c(F)c1-c1cccc(Cl)c1 [Example A-057, {1-[5-(3′-chloro-2-fluoro-6-methoxy-biphenyl-3-ylmethyl)-pyridin-2-yl]-ureido}-acetic acid]	< 5 µM	< 5 µM		
COc1ccc(Cc2cnc(NC(N)=O)[n+]([O-])c2)c(F)c1-c1cccc(Cl)c1 [Example A-015]	< 5 µM	< 5 µM		
COC(=O)c1ccc(Cc2ccc(OC(F)F)c(-c3cccc(Cl)c3)c2)cn1 [Example A-075, 5-(3′-Chloro-6-difluoromethoxy-biphenyl-3-ylmethyl)-pyridine-2-carboxylic acid methyl ester]	< 5 µM	< 5 µM		
COc1ccc(Cc2ccc(N3CCC[C@H]3C(=O)O)nc2)c(F)c1-c1cccc(Cl)c1 [Example A-063, (S)-1-[5-(3′-chloro-2-fluoro-6-methoxy-biphenyl-3-ylmethyl)-pyridin-2-yl]-pyrrolidine-2-carboxylic acid]	< 5 µM	< 5 µM		
COc1ccc(Cc2ccc(O)nc2)c(F)c1-c1cccc(Cl)c1 [Example A-036]	< 5 µM	< 5 µM		
COc1ccc(Cc2ccc(NC(N)=O)[n+]([O-])c2)c(F)c1-c1cccc(Cl)c1 [Example A-014]	< 5 µM	5 to 20 µM		
COc1ccc(Cn2cnc(C(=O)O)c2)c(F)c1-c1cccc(Cl)c1 [Example A-059, 1-(3′-Chloro-2-fluoro-6-methoxy-biphenyl-3-ylmethyl)-1H-imidazole-4-carboxylic acid]	< 5 µM	5 to 20 µM		
COc1ccc(Cc2cnc(NS(N)(=O)=O)nc2)c(F)c1-c1cccc(Cl)c1 [Example A-012]	< 5 µM	< 5 µM		
COc1ccc(Cc2ccc(C(=O)NS(C)(=O)=O)nc2)c(F)c1-c1cccc(Cl)c1 [Example A-050, N-[5-(3′-Chloro-2-fluoro-6-methoxy-biphenyl-3-ylmethyl)-pyridine-2-carbonyl]-methanesulfonamide]	< 5 µM	< 5 µM		
1-[5-(3′-Chloro-2-fluoro-6-methoxy-biphenyl-3-ylmethyl)-pyrimitlin-2-yl]-piperidine-2-carboxylic acid [Example A-041]			< 5 µM	5 to 20 µM
COc1ccc(Cc2ccc(NS(N)(=O)=O)cc2)c(F)c1-c1cccc(Cl)c1 [Example A-008]	< 5 µM	< 5 µM		
COc1ccc(Cc2ccc(N3CCC[C@H]3C(=O)O)nc2)cc1-c1cccc(Cl)c1 [Example A-068, (S)-1-[5-(3′-chloro-6-methoxy-biphenyl-3-ylmethyl)-pyridin-2-yl]-pyrrolidine-2-carboxylic acid]	< 5 µM	< 5 µM		
COc1ccc(Cc2ccc(N3CCC3C(=O)O)nc2)cc1-c1cccc(Cl)c1 (stereo not shown) [Example A-067, 1-[5-(3′-chloro-6-methoxy-biphenyl-3-ylmethyl)-pyridin-2-yl]-azetidine-2-carboxylic acid acetate salt]	< 5 µM	5 to 20 µM		
CCNC(=O)NCc1ccc(Cc2ccc(OC)c(-c3cccc(Cl)c3)c2F)c[n+]1[O-] [Example B-082, 1-[5-(3′-Chloro-2-fluoro-6-methoxy-biphenyl-3-ylmethyl)-1-oxy-pyridin-2-ylmethyl]-3-ethyl-urea]	< 5 µM	< 5 µM		

Molecule	IC50 (hPDE4D)	IC50 (hPDE4B)	IC50 (hPDE4D; read-out: hPDE4D activity, enzyme-coupled NADH assay, absorbance at 340 nm)	IC50 (hPDE4B; read-out: hPDE4B activity, enzyme-coupled NADH assay, absorbance at 340 nm)
COc1ccc(Cc2nnc(NC(=O)NCCC(=O)O)s2)c(F)c1-c1cccc(Cl)c1 [Example A-027, 3-{3-[5-(3′-Chloro-2-fluoro-6-methoxy-biphenyl-3-ylmethyl)-[1,3,4]thiadiazol-2-yl]-ureido}-propionic acid]	< 5 µM	20 to 40 µM		
CCNC(=O)Nc1ccc(Cc2ccc(OC)c(-c3cccc(Cl)c3)c2F)c[n+]1O [Example B-081, 1-[5-(3′-Chloro-2-fluoro-6-methoxy-biphenyl-3-ylmethyl)-1-oxy-pyridin-2-yl]-3-ethyl-urea]	< 5 µM	< 5 µM		
COc1ccc(Cc2cnc(N3CCCC3C(=O)O)nc2)c(F)c1-c1cccc(Cl)c1 (stereo not shown) [Example A-040, 1-[5-(3′-Chloro-2-fluoro-6-methoxy-biphenyl-3-ylmethyl)-pyrimidin-2-yl]-pyrrolidine-2-carboxylic acid]	< 5 µM	< 5 µM		
COC(=O)c1ccc(Cc2ccc(OC)c(-c3cccc(C(C)=O)c3)c2F)cn1 [Example A-020, 5-(3′-Acetyl-2-fluoro-6-methoxy-biphenyl-3-ylmethyl)-pyridine-2-carboxylic acid methyl ester]	< 5 µM	< 5 µM		
COc1ccc(Cc2cnc(N(C)CC(=O)O)nc2)c(F)c1-c1cccc(Cl)c1 [Example A-047, {[5-(3′-Chloro-2-fluoro-6-methoxy-biphenyl-3-ylmethyl)-pyrimidin-2-yl]-methyl-amino}-acetic acid]	< 5 µM	< 5 µM		
COc1ccc(Cc2ccc(NC(=O)NCC(=O)O)nc2)c(F)c1-c1cccc(Cl)c1 [Example A-028]	< 5 µM	< 5 µM		
CCOC(=O)C(=O)NCc1ccc(Cc2ccc(OC)c(-c3cccc(Cl)c3)c2F)cn1 [Example A-048, N-[5-(3′-Chloro-2-fluoro-6-methoxy-biphenyl-3-ylmethyl)-pyridin-2-ylmethyl]-oxalamic acid ethyl ester]	< 5 µM	< 5 µM		
COC(=O)c1ccc(Cc2ccc(OC)c(-c3cccc(C(C)=O)c3)c2F)cc1 [Example A-018, 4-(3′-Acetyl-2-fluoro-6-methoxy-biphenyl-3-ylmethyl)-benzoic acid methyl ester]	< 5 µM	20 to 40 µM		
COc1ccc(Cc2cnc(N3CCC3C(=O)O)nc2)c(F)c1-c1cccc(Cl)c1 (stereo not shown) [Example A-049, 1-[5-(3′-Chloro-2-fluoro-6-methoxy-biphenyl-3-ylmethyl)-pyrimidin-2-yl]-azetidine-2-carboxylic acid]	< 5 µM	< 5 µM		
COc1ccc(Cc2ccc(F)cc2)[n+]([O-])c1-c1cccc([N+](=O)[O-])c1 [Example B-080, 6-(4-Fluoro-benzyl)-3-methoxy-2-(3-nitro-phenyl)-pyridine 1-oxide]	< 5 µM	< 5 µM		
COc1ccc(Cc2ccc(C(=O)O)nc2)c(F)c1-c1cccc(C(C)=O)c1 [Example A-021, 5-(3′-Acetyl-2-fluoro-6-methoxy-biphenyl-3-ylmethyl)-pyridine-2-carboxylic acid]	5 to 20 µM	5 to 20 µM		
COc1ccc(Cc2nnc(NC(=O)NCCCC(=O)O)s2)c(F)c1-c1cccc(Cl)c1 [Example A-031, 4-{3-[5-(3′-Chloro-2-fluoro-6-methoxy-biphenyl-3-ylmethyl)-[1,3,4]thiadiazol-2-yl]-ureido}-butyric acid]	< 5 µM	5 to 20 µM		
COc1ccc(Cn2cnc3c(=O)[nH]c(N)nc32)cc1-c1cccc([N+](=O)[O-])c1 [Example A-004, 2-Amino-9-(6-methoxy-3′-nitro-biphenyl-3-ylmethyl)-1,9-dihydro-purin-6-one]	5 to 20 µM	20 to 40 µM		
COc1ccc(Cc2ccc(-c3nnn[nH]3)nc2)c(F)c1-c1cccc(Cl)c1 [Example A-042, 5-(3′-Chloro-2-fluoro-6-methoxy-biphenyl-3-ylmethyl)-2-(1H-tetrazol-5-yl)-pyridine]	< 5 µM	< 5 µM		
COc1ccc(Cc2ccc(NS(N)(=O)=O)c(O)c2)c(F)c1-c1cccc(Cl)c1 [Example A-011]	< 5 µM	5 to 20 µM		
COc1ccc(Cc2ccc(NC(=O)NCCC(=O)O)nc2)c(F)c1-c1cccc(Cl)c1 [Example A-032]	< 5 µM	5 to 20 µM		
COc1ccc(Cc2cnc(NS(N)(=O)=O)nc2)c(F)c1-c1cccc(C(C)=O)c1 [Example A-017]	< 5 µM	< 5 µM		
COc1ccc(Cc2ccc(CN3CCNC3=O)[n+]([O-])c2)c(F)c1-c1cccc(Cl)c1 [Example B-083, 1-[5-(3′-Chloro-2-fluoro-6-methoxy-biphenyl-3-ylmethyl)-1-oxy-pyridin-2-ylmethyl]-imidazolidin-2-one]	< 5 µM	< 5 µM		
COc1ccc(Cc2ccc(N3CC[C@@H]3C(=O)O)nc2)c(F)c1-c1cccc(Cl)c1 [Example A-061, (R)-1-[5-(3′-chloro-2-fluoro-6-methoxy-biphenyl-3-ylmethyl)-pyridin-2-yl]-azetidine-2-carboxylic acid]	< 5 µM	5 to 20 µM		
